In patent publication US20130065818A1, “Arylamide Compounds And Compositions And Uses Thereof” (POLYMEDIX, priority 2006, published 2013):
Values joined by “and” are separate entries in the source; they are usually repeats but may differ in a detail not shown here. Identical values can stand only once. Like-named read-outs stand apart in the source and are kept apart here.

Legend:
Format in all cases: cell-based
[1] = system: Staphylococcus aureus fluoroquinolone-susceptible; assay: MIC, 25 ocular isolates, broth microdilution (Example 8)
Experimental: • Mueller-Hinton Broth in tubes was inoculated with 25 ocular isolates of Staphylococcus aureus fluoroquinolone-susceptible, Staphylococcus aureus fluoroquinolone-resistant, Staphylococcus epidermidis (Coagulase-negative Staphylococcus) fluoroquinolone-susceptible, Staphylococcus epidermidis (Coagulase-negative Staphylococcus) fluoroquinolone-resistant, Pseudomonas aeruginosa and Serratia marcescens, plus two controls (Staphylococcus aureus and E. coli) and incubated at 37° C. overnight on a shaker set at 250 rpm.
On the day of testing, a 640 μg/ml (1280 μg/ml for Serratia marcescens and Pseudomonas aeruginosa) concentration was prepared from a 1% stock solution in 0.01% acetic acid, 0.2% BSA in polypropylene tubes.
Serial doubling dilutions in 0.01% acetic acid, 0.2% BSA in 96 well polypropylene plates, which are used as reservoirs for the inoculation of the test plates, were carried out to obtain serial dilutions of test agents at 10 times the required test concentrations: 640, 320, 160, 80, 40, 20, 10, 5, 2.5, 1.25, and 0.625 μg/ml (1280, 640, 320, 160, 80, 40, 20, 10, 5, 2.5, and 1.25 μg/ml for Serratia marcescens and Pseudomonas aeruginosa).
Ten μl of diluted 10×test agents was added to each well of one row of the 96 well polypropylene plates from column 2 to column 12 (column 1 is a control for bacteria alone, with no peptide). Test agent concentrations in columns 2-12 were as follows: 64, 32, 16, 8, 4, 2, 1, 0.5, 0.25, 0.125, and 0.0625 μg/ml (128, 64, 32, 16, 8, 4, 2, 1, 0.5, 0.25, and 0.125 μg/ml for Serratia marcescens and Pseudomonas aeruginosa). The same peptide was in each of the 8 rows. One plate contained dilutions of one test agent and 8 bacterial isolates.
On the day of testing, the overnight bacterial broth cultures of Staphylococcus aureus fluoroquinolone-susceptible, Staphylococcus aureus fluoroquinolone-resistant, Staphylococcus epidermidis (Coagulase-negative Staphylococcus) fluoroquinolone-susceptible, Staphylococcus epidermidis (Coagulase-negative Staphylococcus) fluoroquinolone-resistant, Serratia marcescens, and Pseudomonas aeruginosa, plus two controls (Staphylococcus aureus and E. coli) were diluted in 5 ml of trypticase soy broth to yield turbidity equal to a 0.5 McFarland standard. The final inoculum for MIC testing for Staphylococcus aureus fluoroquinolone-susceptible, Staphylococcus aureus fluoroquinolone-resistant, Staphylococcus epidermidis (Coagulase-negative Staphylococcus) fluoroquinolone-susceptible, Staphylococcus epidermidis (Coagulase-negative Staphylococcus) fluoroquinolone-resistant, Serratia marcescens, and Pseudomonas aeruginosa was achieved by placing 0.05 ml of the turbidity adjusted sample to 5 ml of Mueller-Hinton broth.
Ninety μl of the bacterial suspensions was dispensed in each well from column 1 to column 12. Each bacterial isolate was placed in one row of a 96 well polypropylene plate containing the test agents. The plates were placed on shaker at 15 minutes at room temperature, and then incubated at 37° C. overnight. MICs were determined visually as the lowest concentration of drug that inhibits visible bacterial growth.

Serratia marcescens = assay: as above
[2] = system: K. pneumoniae Lab Strain KP10; assay: MIC, laboratory strains (Example 8)
[3] = system: Fluoroquinolone-Resistant Methicillin-Resistant Staphylococcus aureus Strain K950; assay: MIC characterization of strain K950; conditions: read-out: MIC (Minimum Inhibitory Concentration)

N=C(N)NCCCCC(=O)Nc1cc(C(F)(F)F)cc(NC(=O)c2cc(C(=O)Nc3cc(C(F)(F)F)cc(NC(=O)CCCCNC(=N)N)c3O[C@@H]3CCNC3)ncn2)c1O[C@@H]1CCNC1 [Oligomer 4]
0.25 µg/mL: MIC50 ([1]; 25 isolates, Row 13) | MIC ([1]; Staphylococcus aureus, isolate 1—E402, read-out: MIC) | MIC ([1]; Staphylococcus aureus, isolate 2—E1512, read-out: MIC) | MIC ([1]; Staphylococcus aureus, isolate 3—E253, read-out: MIC) | MIC ([1]; Staphylococcus aureus, isolate 4—K1518, read-out: MIC) | MIC ([1]; Staphylococcus aureus, isolate 7—K1648, read-out: MIC) | MIC ([1]; Staphylococcus aureus, isolate 8—K1646, read-out: MIC) | MIC ([1]; Staphylococcus aureus, isolate 11—K1628, read-out: MIC) | MIC ([1]; Staphylococcus aureus, isolate 13—K1617, read-out: MIC) | MIC ([1]; Staphylococcus aureus, isolate 14—K1611, read-out: MIC) | MIC ([1]; Staphylococcus aureus, isolate 15—K1607, read-out: MIC) | MIC ([1]; Staphylococcus aureus, isolate 16—K1600, read-out: MIC) | MIC ([1]; Staphylococcus aureus, isolate 17—K1591, read-out: MIC) | MIC ([1]; Staphylococcus aureus, isolate 18—K1585, read-out: MIC) | MIC ([1]; Staphylococcus aureus, isolate 19—K1583, read-out: MIC) | MIC ([1]; Staphylococcus aureus, isolate 20—K1574, read-out: MIC) | MIC ([1]; Staphylococcus aureus, isolate 21—K1566, read-out: MIC) | MIC ([1]; Staphylococcus aureus, isolate 22—K1551, read-out: MIC) | MIC ([1]; Staphylococcus aureus, isolate 23—K1545, read-out: MIC) | MIC ([1]; Staphylococcus aureus, isolate 24—K1540, read-out: MIC) | MIC ([1]; Staphylococcus aureus, isolate 25—K1530, read-out: MIC) | MIC ([1]; Staphylococcus aureus, n=25 per group, read-out: Median MIC) | MIC50 ([1]; Staphylococcus aureus, 25 isolates, Summary of Results, read-out: MIC50) | MIC90 ([1]; Staphylococcus aureus, 25 isolates, Summary of Results, read-out: MIC90) | MIC ([1]; Staphylococcus aureus, 25 isolates, Summary of Results, read-out: Median MIC) | MIC50 ([1]; n=25 per group) | MIC90 ([1]; n=25 per group) | MIC (Serratia marcescens; Serratia marcescens, isolate 15—K1402, read-out: MIC)
0.5 µg/mL: MIC90 ([1]; 25 isolates, Row 22) | MIC ([1]; Staphylococcus aureus, isolate 6—K1663, read-out: MIC) | MIC ([1]; Staphylococcus aureus, isolate 9—K1642, read-out: MIC) | MIC ([1]; Staphylococcus aureus, isolate 10—K1638, read-out: MIC) | MIC ([1]; Staphylococcus aureus, isolate 12—K1618, read-out: MIC) | MIC (Serratia marcescens; Serratia marcescens, isolate 17—K1351, read-out: MIC) | MIC [3]
32 µg/mL: MIC90 (Serratia marcescens; 25 isolates, Row 22, >128 was Replaced with 256) | MIC (Serratia marcescens; Serratia marcescens, isolate 1—K1681, read-out: MIC) | MIC (Serratia marcescens; Serratia marcescens, isolate 2—K1674, read-out: MIC) | MIC (Serratia marcescens; Serratia marcescens, isolate 5—K1503, read-out: MIC) | MIC (Serratia marcescens; Serratia marcescens, isolate 9—K1470, read-out: MIC) | MIC (Serratia marcescens; Serratia marcescens, isolate 11—K1467, read-out: MIC) | MIC90 (Serratia marcescens; Serratia marcescens, 25 isolates, Summary of Results, >128 was Replaced with 256, read-out: MIC90) | MIC90 (Serratia marcescens; n=25 per group)
≤ 0.25 µg/mL: MIC ([1]; Staphylococcus aureus, 25 ocular isolates, read-out: Median MIC)
2 µg/mL: MIC (Serratia marcescens; Serratia marcescens, isolate 8—K1481, read-out: MIC) | MIC (Serratia marcescens; Serratia marcescens, isolate 10—K1468, read-out: MIC)
0.125 µg/mL: MIC ([1]; Staphylococcus aureus, isolate 5—K1525, read-out: MIC)
8 µg/mL: MIC50 (Serratia marcescens; 25 isolates, Row 13, >128 was Replaced with 256) | MIC (Serratia marcescens; Serratia marcescens, 25 ocular isolates, read-out: Median MIC) | MIC (Serratia marcescens; Serratia marcescens, isolate 7—K1496, read-out: MIC) | MIC (Serratia marcescens; Serratia marcescens, isolate 13—K1461, read-out: MIC) | MIC (Serratia marcescens; Serratia marcescens, isolate 18—K1327, read-out: MIC) | MIC (Serratia marcescens; Serratia marcescens, isolate 19—K1321, read-out: MIC) | MIC (Serratia marcescens; Serratia marcescens, isolate 21—K1306, read-out: MIC) | MIC (Serratia marcescens; Serratia marcescens, isolate 22—K1290, read-out: MIC) | MIC (Serratia marcescens; Serratia marcescens, isolate 23—K1265, read-out: MIC) | MIC (Serratia marcescens; Serratia marcescens, isolate 24—K1263, read-out: MIC) | MIC (Serratia marcescens; Serratia marcescens, isolate 25—K1239, read-out: MIC) | MIC (Serratia marcescens; Serratia marcescens, n=25 per group, read-out: Median MIC) | MIC50 (Serratia marcescens; Serratia marcescens, 25 isolates, Summary of Results, >128 was Replaced with 256, read-out: MIC50) | MIC (Serratia marcescens; Serratia marcescens, 25 isolates, Summary of Results, >128 was Replaced with 256, read-out: Median MIC) | MIC50 (Serratia marcescens; n=25 per group)
0.250 and 0.500: MIC, sorted list for MIC50 and MIC90 Determinations (QSSA-A) ([1]; 25 isolates sorted ascending, Row 1-25, in µg/mL)
0.125 to 0.5 µg/mL: Range of MICs ([1]; 25 isolates, Summary of Results) | Range of MICs ([1]; n=25 per group)
0.78 µg/mL: MIC [2]
16 µg/mL: MIC (Serratia marcescens; Serratia marcescens, isolate 4—K1538, read-out: MIC) | MIC (Serratia marcescens; Serratia marcescens, isolate 12—K1462, read-out: MIC) | MIC (Serratia marcescens; Serratia marcescens, isolate 14—K1413, read-out: MIC) | MIC (Serratia marcescens; Serratia marcescens, isolate 20—K1315, read-out: MIC)
0.25 to 32 µg/mL: Range of MICs (Serratia marcescens; 25 isolates, Summary of Results, >128 was Replaced with 256) | Range of MICs (Serratia marcescens; n=25 per group)
1 µg/mL: MIC (Serratia marcescens; Serratia marcescens, isolate 16—K1357, read-out: MIC)
4 µg/mL: MIC (Serratia marcescens; Serratia marcescens, isolate 3—K1558, read-out: MIC) | MIC (Serratia marcescens; Serratia marcescens, isolate 6—K1216, read-out: MIC)
